Experimental data published in US20040258773A1, “Composition and methods for treating subjects with hyperglycemia” (priority 2004, published 2004).

Test system: 3T3-L1 adipocytes
Assay: Glucose uptake activity assay (2-deoxy-D-[3H]glucose uptake)
Assay type: cell-based
Settings: 12-well plates, 15 min incubation, FIG. 1
Method: Glucose uptake activity assay. Glucose uptake activity was analyzed by measuring the uptake of 2-deoxy-D-[^3H] glucose as described previously (Sakoda, H, et al. (1999) Diabetes 48: 1365-1371; Garcia de Herreros, A. & Birnbaum, M. J. (1989) J. Biol. Chem. 264: 19994-19999). Briefly, confluent 3T3-L1 adipocytes grown in 12-well plates were washed twice with serum-free DMEM and incubated with 1 mL of the same medium at 37° C. for 2 h. The cells were washed 3 times with Krebs-Ringer-Hepes (KRP) buffer and incubated with 0.9 mL KRP buffer at 37° C. for 30 min. Insulin and/or BE were then added and adipocytes were incubated at 37° C. for 15 min. Glucose uptake was initiated by the addition of 0.1 ml, KRP buffer and 3.7×10^7 Bq/L 2-deoxy-D-[^3H] glucose and 1 mmol/L glucose as final concentrations. After 10 min, glucose uptake was terminated by washing the cells 3 times with cold PBS. The cells were lysed with 0.7 mL of 1% Triton X-100 at 37° C. for 20 min. The radioactivity retained by the cell lysates was determined by a scintillation counter. Nonspecific glucose uptake was measured at a glucose concentration of 100 mmol/L. Assay data were statistically analyzed using the paired Student's t-test, with P<0.05 set as the significant difference level.

insulin: Bovine insulin from Sigma Chemical, positive control
stimulation of glucose uptake in 3T3-L1 adipocytes: could stimulate glucose uptake
